Reference: ChEMBL document CHEMBL1201862, “PubChem BioAssay data set” (2004)
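Cultured in 96-well plates, cells were exposed to test compound for 48 hours across five concentrations. GI50 is the concentration that inhibits growth by half.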 Calls of active or inactive are those of the source. Rule as the data show it: active = GI50 up to about 1.1 µM and inactive = higher.

Assays:
Assay in all cases: NCI tumour cell line growth inhibition, 48 h
OVCAR-8 = test system: OVCAR-8
SW-620 = test system: SW-620
UACC-62 = test system: UACC-62
Hs-578T = test system: Hs-578T
SK-OV-3 = test system: SK-OV-3
SNB-19 = test system: SNB-19
A498 = test system: A498
EKVX = test system: EKVX
HOP-92 = test system: HOP-92
HCT-116 = test system: HCT-116
RPMI-8226 = test system: RPMI-8226
K562 = test system: K562
SN12C = test system: SN12C
CAKI-1 = test system: CAKI-1
DU-145 = test system: DU-145
NCI-H226 = test system: NCI-H226
OVCAR-3 = test system: OVCAR-3
A549 = test system: A549
NCI-H522 = test system: NCI-H522

SMILES | GI50 (OVCAR-8) | GI50 (SW-620) | GI50 (UACC-62) | GI50 (Hs-578T) | GI50 (SK-OV-3) | GI50 (SNB-19) | GI50 (A498) | GI50 (EKVX) | GI50 (HOP-92) | GI50 (HCT-116) | GI50 (RPMI-8226) | GI50 (K562) | GI50 (SN12C) | GI50 (CAKI-1) | GI50 (DU-145) | GI50 (NCI-H226) | GI50 (OVCAR-3) | GI50 (A549) | GI50 (NCI-H522)
NNS(=O)(=O)c1ccc(/C=C2\NC(=O)NC2=O)cc1 | > 100 µM (inactive) | > 100 µM (inactive) | > 100 µM (inactive) | > 100 µM (inactive) | > 100 µM (inactive) | > 100 µM (inactive) | > 100 µM (inactive) | > 100 µM (inactive) | > 100 µM (inactive) | > 100 µM (inactive) | > 100 µM (inactive) | > 100 µM (inactive) | > 100 µM (inactive) | > 100 µM (inactive) | > 100 µM (inactive) | > 100 µM (inactive) | > 100 µM (inactive) | > 100 µM (inactive) | 
Clc1ccc(-c2nnc(-c3c(Cl)c(Cl)c(Cl)c(Cl)c3-c3nc4ccccc4[nH]3)o2)cc1 | 48.2 µM (inactive) | > 100 µM (inactive) | 63.4 µM (inactive) | > 100 µM (inactive) | > 100 µM (inactive) |  | 82.8 µM (inactive) | 54.3 µM (inactive) | 31.7 µM (inactive) | 31.6 µM (inactive) | 31.8 µM (inactive) | 34.3 µM (inactive) | 46.8 µM (inactive) | 56.1 µM (inactive) | 78.2 µM (inactive) | 54.5 µM (inactive) | 61.7 µM (inactive) |  | 47.9 µM (inactive)
O=C1Nc2cc([N+](=O)[O-])ccc2N/C1=C/C(=O)c1ccc(Cl)cc1 | 8 µM (inactive) | 13.9 µM (inactive) | 14.9 µM (inactive) | 11.5 µM (inactive) | 19.4 µM (inactive) | 11.2 µM (inactive) | 19.7 µM (inactive) | 15.7 µM (inactive) | 16 µM (inactive) | 3.24 µM (inactive) | 10.9 µM (inactive) | 3.64 µM (inactive) |  | 17.6 µM (inactive) | 6.71 µM (inactive) | 19.5 µM (inactive) | 20.1 µM (inactive) | 10 µM (inactive) | 
CCCC(=O)OCC1OC(n2cc(F)c(=O)[nH]c2=O)CC1OC(=O)CCC (stereo not given) | 0.203 µM (active) | > 10 µM (inactive) | 0.177 µM (active) | 2.32 µM (inactive) | > 2.93 µM (inactive) |  | 0.484 µM (active) | > 10 µM (inactive) | 0.509 µM (active) | 0.524 µM (active) | 0.973 µM (active) | 1.16 µM (inactive) | 0.346 µM (active) | 0.183 µM (active) | 0.156 µM (active) | 5.53 µM (inactive) | 1.67 µM (inactive) | 0.0578 µM (active) | 5.22 µM (inactive)
CCCC(=O)N(C)/N=N/c1ccc(C(=O)OCC)cc1 | > 100 µM (inactive) | > 100 µM (inactive) | > 100 µM (inactive) | > 100 µM (inactive) |  | > 100 µM (inactive) | 81.7 µM (inactive) | 15.2 µM (inactive) | > 100 µM (inactive) | > 100 µM (inactive) | > 100 µM (inactive) | > 100 µM (inactive) | > 100 µM (inactive) | > 100 µM (inactive) | > 100 µM (inactive) | > 100 µM (inactive) | > 100 µM (inactive) | > 100 µM (inactive) | 52 µM (inactive)
Cc1ccc(NC(=O)/C(Cc2cc(=O)oc3cc(O)ccc23)=N\NC(C)(C)C)cc1C | > 100 µM (inactive) | > 100 µM (inactive) | > 100 µM (inactive) | > 100 µM (inactive) | > 100 µM (inactive) | > 100 µM (inactive) | > 100 µM (inactive) |  | > 100 µM (inactive) | > 100 µM (inactive) | > 100 µM (inactive) | > 100 µM (inactive) | > 100 µM (inactive) | > 100 µM (inactive) | > 100 µM (inactive) | > 100 µM (inactive) | > 100 µM (inactive) | > 100 µM (inactive) | 
